Measured values reported in ChEMBL document CHEMBL5233266, “β-Carboline as a Privileged Scaffold for Multitarget Strategies in Alzheimer's Disease Therapy” (J Med Chem, 2021).
Several values for one entry are separate records, joined by “and”; a condition that tells them apart may be missing. Equal entries are not always repeated.

Key:
[1] = biological target: GABA-A receptor; anion channel; test: Inhibition of GABAA receptor (unknown origin); format: protein-complex assay, Homo sapiens
[2] = biological target: 5-hydroxytryptamine receptor 2B (Rattus norvegicus, UniProt P30994); test: Displacement of [3H]-ketanserin from rat 5-HT2B expressed in mouse NIH/3T3 cells assessed as inhibition constant by Cheng-Prusoff equation analysis; format: cell-based
[3] = biological target: 5-hydroxytryptamine receptor 2B (Homo sapiens, UniProt P41595); test: Binding affinity to 5-HT2B (unknown origin) assessed as equilibrium binding constant
[4] = biological target: T1, Amine oxidase [flavin-containing] A (Homo sapiens, UniProt P21397); test: Inhibition of MAO-A (unknown origin)
T1 sequence (P21397 whole entry): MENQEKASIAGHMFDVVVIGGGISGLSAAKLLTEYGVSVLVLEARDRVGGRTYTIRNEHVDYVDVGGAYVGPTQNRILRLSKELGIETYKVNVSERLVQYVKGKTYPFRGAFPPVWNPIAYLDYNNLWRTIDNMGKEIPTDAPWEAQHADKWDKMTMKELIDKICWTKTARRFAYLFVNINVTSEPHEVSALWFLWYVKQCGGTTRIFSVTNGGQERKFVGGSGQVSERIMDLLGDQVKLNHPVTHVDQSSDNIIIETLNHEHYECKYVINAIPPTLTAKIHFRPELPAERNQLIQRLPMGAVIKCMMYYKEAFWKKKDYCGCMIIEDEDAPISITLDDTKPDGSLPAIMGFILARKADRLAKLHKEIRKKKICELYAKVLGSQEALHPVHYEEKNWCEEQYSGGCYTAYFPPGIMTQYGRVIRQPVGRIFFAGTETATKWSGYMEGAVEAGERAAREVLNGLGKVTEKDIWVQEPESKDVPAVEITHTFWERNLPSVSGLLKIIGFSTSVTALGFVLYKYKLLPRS

Acetylcholinesterase [5] = biological target: T2, Acetylcholinesterase (Homo sapiens, UniProt P22303); test: Inhibition of AChE (unknown origin)
Cholinesterase = Cholinesterase (Homo sapiens, UniProt P06276); test: Inhibition of BuChE (unknown origin)
Acetylcholinesterase [6] = biological target: T2, Acetylcholinesterase; test: Inhibition of AChE (unknown origin) incubated for 40 mins by Ellman's method
Acetylcholinesterase [7] = biological target: T2, Acetylcholinesterase; test: Inhibition of AChE (unknown origin) using acetylthiocholine iodide as substrate incubated for 20 mins followed by substrate addition by Ellman's method
[8] = biological target: T3, Gamma-aminobutyric acid receptor subunit alpha-1 (Homo sapiens, UniProt P14867); test: Binding affinity to human recombinant GABAA alpha1 receptor assessed as inhibition constant incubated for 1 hrs by liquid scintillation counting analysis
T3 sequence (P14867 whole entry): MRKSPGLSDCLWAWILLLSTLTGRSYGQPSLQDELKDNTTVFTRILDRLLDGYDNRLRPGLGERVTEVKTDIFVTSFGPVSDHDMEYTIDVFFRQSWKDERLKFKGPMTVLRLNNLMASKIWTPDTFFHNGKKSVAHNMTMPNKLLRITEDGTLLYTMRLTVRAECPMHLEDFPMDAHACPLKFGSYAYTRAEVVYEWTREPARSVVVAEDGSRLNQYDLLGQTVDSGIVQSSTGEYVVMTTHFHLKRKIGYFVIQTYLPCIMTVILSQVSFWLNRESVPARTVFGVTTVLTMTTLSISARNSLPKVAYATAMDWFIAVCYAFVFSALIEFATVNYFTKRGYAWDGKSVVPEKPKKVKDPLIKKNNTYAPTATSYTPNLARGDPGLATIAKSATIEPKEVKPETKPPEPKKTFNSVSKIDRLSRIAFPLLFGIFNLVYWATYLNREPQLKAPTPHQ

[9] = biological target: T4, Gamma-aminobutyric acid receptor subunit alpha-2 (Homo sapiens, UniProt P47869); test: Binding affinity to human recombinant GABAA alpha2 receptor assessed as inhibition constant incubated for 1 hrs by liquid scintillation counting analysis
T4 sequence (P47869 whole entry): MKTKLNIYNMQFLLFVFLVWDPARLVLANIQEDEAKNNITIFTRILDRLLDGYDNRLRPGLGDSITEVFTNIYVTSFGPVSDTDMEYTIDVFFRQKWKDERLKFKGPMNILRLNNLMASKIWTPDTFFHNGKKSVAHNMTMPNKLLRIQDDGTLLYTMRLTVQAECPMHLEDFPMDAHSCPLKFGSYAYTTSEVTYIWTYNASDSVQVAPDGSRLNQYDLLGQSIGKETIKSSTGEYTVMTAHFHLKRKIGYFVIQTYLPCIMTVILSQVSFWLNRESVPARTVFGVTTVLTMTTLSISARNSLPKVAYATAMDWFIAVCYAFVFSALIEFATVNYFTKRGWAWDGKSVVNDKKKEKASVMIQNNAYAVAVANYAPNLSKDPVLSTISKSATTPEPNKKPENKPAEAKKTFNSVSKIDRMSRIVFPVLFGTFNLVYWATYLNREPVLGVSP

[10] = biological target: T5, Gamma-aminobutyric acid receptor subunit alpha-3 (Homo sapiens, UniProt P34903); test: Binding affinity to human recombinant GABAA alpha3 receptor assessed as inhibition constant incubated for 1 hrs by liquid scintillation counting analysis
T5 sequence (P34903 whole entry): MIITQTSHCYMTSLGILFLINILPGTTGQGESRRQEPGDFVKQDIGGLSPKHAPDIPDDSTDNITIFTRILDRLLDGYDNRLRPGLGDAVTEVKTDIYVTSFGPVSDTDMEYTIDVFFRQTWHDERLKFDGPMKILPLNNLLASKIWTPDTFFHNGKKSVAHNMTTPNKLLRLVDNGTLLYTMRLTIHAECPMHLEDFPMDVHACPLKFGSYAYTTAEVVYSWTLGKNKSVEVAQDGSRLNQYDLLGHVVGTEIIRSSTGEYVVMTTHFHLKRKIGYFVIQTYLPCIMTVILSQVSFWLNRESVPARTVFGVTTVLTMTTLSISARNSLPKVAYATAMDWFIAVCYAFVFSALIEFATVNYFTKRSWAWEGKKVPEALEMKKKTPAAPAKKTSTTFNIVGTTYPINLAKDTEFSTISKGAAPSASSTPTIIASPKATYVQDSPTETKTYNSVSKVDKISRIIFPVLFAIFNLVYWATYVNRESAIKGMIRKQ

[11] = biological target: T6, Gamma-aminobutyric acid receptor subunit alpha-5 (Homo sapiens, UniProt P31644); test: Binding affinity to human recombinant GABAA alpha5 receptor assessed as inhibition constant incubated for 1 hrs by liquid scintillation counting analysis
T6 sequence (P31644 whole entry): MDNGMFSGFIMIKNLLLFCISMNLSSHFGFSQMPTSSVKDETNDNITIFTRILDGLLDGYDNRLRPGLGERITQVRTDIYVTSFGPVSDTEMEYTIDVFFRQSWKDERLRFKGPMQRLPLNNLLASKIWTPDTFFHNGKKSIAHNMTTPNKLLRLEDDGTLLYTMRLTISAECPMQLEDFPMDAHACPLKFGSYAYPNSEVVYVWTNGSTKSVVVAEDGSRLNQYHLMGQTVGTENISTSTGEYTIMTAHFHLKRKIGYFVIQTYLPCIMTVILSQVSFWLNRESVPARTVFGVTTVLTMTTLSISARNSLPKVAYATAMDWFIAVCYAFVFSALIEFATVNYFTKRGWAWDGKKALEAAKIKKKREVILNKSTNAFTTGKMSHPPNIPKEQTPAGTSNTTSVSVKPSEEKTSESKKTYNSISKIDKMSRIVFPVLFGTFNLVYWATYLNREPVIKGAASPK

[12] = biological target: Gamma-aminobutyric acid receptor subunit alpha-6 (Homo sapiens, UniProt Q16445); test: Binding affinity to human recombinant GABAA alpha6 receptor assessed as inhibition constant incubated for 1 hrs by liquid scintillation counting analysis
[13] = biological target: GABA-A receptor; anion channel; test: Displacement of [3H]flunitrazepam from GABAA (unknown origin ) receptor by radioligand binding assay; format: protein-complex assay, Homo sapiens

Chain of 5-hydroxytryptamine receptor 2B (Rattus norvegicus, UniProt P30994) (P30994 whole entry): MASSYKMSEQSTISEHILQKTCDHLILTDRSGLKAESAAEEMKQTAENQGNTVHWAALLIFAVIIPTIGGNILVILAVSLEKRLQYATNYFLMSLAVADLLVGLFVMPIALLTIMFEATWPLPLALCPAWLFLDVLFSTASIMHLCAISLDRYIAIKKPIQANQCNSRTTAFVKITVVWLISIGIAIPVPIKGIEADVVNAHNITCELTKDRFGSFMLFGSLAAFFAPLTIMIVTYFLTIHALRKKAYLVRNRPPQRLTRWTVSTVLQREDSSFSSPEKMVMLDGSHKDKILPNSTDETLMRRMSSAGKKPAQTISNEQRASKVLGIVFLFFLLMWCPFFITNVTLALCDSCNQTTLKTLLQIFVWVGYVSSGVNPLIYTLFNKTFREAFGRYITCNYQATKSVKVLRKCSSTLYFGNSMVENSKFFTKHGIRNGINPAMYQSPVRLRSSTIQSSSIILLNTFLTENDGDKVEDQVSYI
Chain of Gamma-aminobutyric acid receptor subunit alpha-6 (Q16445 whole entry): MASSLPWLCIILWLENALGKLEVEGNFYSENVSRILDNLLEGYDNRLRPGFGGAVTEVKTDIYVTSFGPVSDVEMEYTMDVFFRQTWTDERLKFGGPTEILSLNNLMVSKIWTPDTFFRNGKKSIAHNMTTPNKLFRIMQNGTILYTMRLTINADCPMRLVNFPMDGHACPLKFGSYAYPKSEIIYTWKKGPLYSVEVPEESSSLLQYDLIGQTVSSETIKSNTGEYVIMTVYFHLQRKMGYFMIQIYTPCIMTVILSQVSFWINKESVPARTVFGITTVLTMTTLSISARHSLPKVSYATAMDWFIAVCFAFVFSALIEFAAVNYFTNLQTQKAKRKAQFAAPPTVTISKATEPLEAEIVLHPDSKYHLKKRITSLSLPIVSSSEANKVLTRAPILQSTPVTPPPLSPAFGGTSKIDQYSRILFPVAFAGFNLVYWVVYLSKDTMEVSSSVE
Chain of Cholinesterase (P06276 whole entry): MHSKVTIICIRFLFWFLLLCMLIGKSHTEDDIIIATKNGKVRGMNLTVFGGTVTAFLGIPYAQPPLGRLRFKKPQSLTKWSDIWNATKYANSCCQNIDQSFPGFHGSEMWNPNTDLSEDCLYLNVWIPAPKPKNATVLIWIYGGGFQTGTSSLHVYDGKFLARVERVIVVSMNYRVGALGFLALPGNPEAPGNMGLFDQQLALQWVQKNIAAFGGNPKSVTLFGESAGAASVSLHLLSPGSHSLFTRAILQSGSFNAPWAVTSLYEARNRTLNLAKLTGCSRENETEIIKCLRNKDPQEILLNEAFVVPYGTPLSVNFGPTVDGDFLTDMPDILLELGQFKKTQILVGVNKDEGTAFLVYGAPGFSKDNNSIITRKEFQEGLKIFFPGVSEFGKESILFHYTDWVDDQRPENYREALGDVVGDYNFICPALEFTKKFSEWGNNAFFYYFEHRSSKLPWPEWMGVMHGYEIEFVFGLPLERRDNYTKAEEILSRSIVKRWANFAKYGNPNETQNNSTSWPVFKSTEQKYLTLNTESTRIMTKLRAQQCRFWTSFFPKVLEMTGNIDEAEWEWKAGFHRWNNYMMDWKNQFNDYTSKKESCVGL
Chain of 5-hydroxytryptamine receptor 2B (Homo sapiens, UniProt P41595) (P41595 whole entry): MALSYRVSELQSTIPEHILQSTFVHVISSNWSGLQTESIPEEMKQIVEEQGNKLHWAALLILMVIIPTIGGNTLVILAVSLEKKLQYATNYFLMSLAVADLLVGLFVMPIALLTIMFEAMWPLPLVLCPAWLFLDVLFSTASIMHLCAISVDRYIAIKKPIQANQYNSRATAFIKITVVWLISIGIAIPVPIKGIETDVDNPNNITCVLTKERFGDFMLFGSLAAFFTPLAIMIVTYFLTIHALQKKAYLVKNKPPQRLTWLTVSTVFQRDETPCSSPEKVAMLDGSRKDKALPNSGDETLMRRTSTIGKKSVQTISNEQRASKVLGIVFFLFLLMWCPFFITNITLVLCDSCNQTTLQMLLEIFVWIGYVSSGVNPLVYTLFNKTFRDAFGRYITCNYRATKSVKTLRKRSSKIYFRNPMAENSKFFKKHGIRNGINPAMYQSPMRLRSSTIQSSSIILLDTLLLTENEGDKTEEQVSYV
T2 sequence (P22303 whole entry): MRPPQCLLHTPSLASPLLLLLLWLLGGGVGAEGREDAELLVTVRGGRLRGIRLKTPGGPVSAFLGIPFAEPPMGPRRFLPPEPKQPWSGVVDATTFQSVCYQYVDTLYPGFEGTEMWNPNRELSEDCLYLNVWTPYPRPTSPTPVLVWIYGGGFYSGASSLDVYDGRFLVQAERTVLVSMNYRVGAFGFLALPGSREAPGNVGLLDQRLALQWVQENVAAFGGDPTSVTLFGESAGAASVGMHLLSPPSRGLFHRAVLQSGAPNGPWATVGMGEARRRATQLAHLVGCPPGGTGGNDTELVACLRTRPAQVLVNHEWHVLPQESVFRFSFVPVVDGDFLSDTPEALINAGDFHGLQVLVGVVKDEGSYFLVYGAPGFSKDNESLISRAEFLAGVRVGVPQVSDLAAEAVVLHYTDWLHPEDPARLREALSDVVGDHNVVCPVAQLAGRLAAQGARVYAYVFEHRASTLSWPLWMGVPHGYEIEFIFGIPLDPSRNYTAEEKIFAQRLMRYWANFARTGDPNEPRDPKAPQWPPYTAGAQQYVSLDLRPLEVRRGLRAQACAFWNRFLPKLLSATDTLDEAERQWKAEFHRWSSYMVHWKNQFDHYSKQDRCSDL

COCc1c(C(=O)OC(C)C)ncc2[nH]c3ccc4nc5c(nc4c3c12)CCCC5
IC50 [1]: 0.8 nM

c1ccc2c(CC3NCCc4c3[nH]c3ccccc43)cccc2c1 (configuration not stated)
Ki [2]: 0.4 nM
Kb [3]: 0.4 nM

Cc1nccc2c1[nH]c1cc(OCC(C)C)ccc12
IC50 [4]: 5 nM

Cc1nccc2c1[nH]c1cc(OCCc3ccccc3)ccc12
IC50 [4]: 5 nM

Cc1nccc2c1[nH]c1cc(OCCCC(F)(F)F)ccc12
IC50 [4]: 5 nM

COCc1ccc2c(c1)[nH]c1c(C)nccc12
IC50 [4]: 30 nM

c1ccc(COc2ccc3c(c2)[nH]c2c3ncc3[nH]c4ccccc4c32)cc1
IC50 [1]: > 4000 nM

COc1ccc2c(c1)[nH]c1c(C(C)=O)nccc12 [ARENARINE C]
IC50 (Acetylcholinesterase [5]): 4000 nM
IC50 (Cholinesterase): 27000 nM

Cn1c2ccccc2c2cc[n+](-c3ccc(I)cc3)cc21
IC50 (Acetylcholinesterase [5]): 240 nM and 300 nM
IC50 (Cholinesterase): 32000 nM and 116000 nM
IC50 (Acetylcholinesterase [6]): 240 nM

COc1ccc(CC2NCCc3c2[nH]c2ccc(C)cc32)c(Br)c1OC (configuration not stated)
Ki [2]: 0.2 nM
Kb [3]: < 0.3 nM

COc1ccc(CC2NCCc3c2[nH]c2cccc(SC)c32)cc1OC (configuration not stated)
Ki [2]: 0.1 nM
Kb [3]: < 0.3 nM

CCCn1c2cc(OCc3cn(Cc4ccccc4Cl)nn3)ccc2c2ccnc(C)c21
IC50 [4]: 260 nM

O=[N+]([O-])c1ccc2[nH]c3cnc4c5ccccc5[nH]c4c3c2c1
IC50 [1]: 4 nM

C=C[C@H]1C[N+]2=C(C[C@@H]1/C(=C\OC)C(=O)OC)c1[nH]c3cccc(OC)c3c1CC2
IC50 (Acetylcholinesterase [7]): 4100 nM

COc1ccc2c(c1)[nH]c1c2ncc2[nH]c3ccccc3c21
Ki [8]: 3 nM
Ki [9]: 12 nM
Ki [10]: 11 nM
Ki [11]: 230 nM
Ki [12]: > 10000 nM
IC50 [1]: 4 nM

O=c1c2cc(NS(=O)(=O)c3ccccc3OC(F)(F)F)ccc2cc2n1CCc1c-2[nH]c2ccccc12
IC50 (Cholinesterase): 3600 nM

Cc1ccc([N+]2=Cc3c(c4ccccc4n3C)CC2)cc1
IC50 (Acetylcholinesterase [6]): 1500 nM

COCc1c(-c2cc(C)on2)ncc2[nH]c3ccc4oc(C(C)C)nc4c3c12
IC50 [1]: 0.9 nM

Cn1c2ccccc2c2cc[n+](-c3ccc(Cl)cc3)cc21
IC50 (Acetylcholinesterase [5]): 560 nM and 300 nM
IC50 (Cholinesterase): 32000 nM and 116000 nM

COc1ccc(CC2NCCc3c2[nH]c2ccc(C)cc32)c(Cl)c1OC (configuration not stated)
Ki [2]: 0.2 nM
Kb [3]: < 0.3 nM

COc1ccc(CC2NCCc3c2[nH]c2cccc(I)c32)cc1OC (configuration not stated)
Ki [2]: 0.1 nM
Kb [3]: < 0.3 nM

O=C(NCCCCCCNc1c2c(nc3ccccc13)CCCC2)[C@@H]1Cc2c([nH]c3ccccc23)CN1
IC50 (Acetylcholinesterase [5]): 22 nM
INH (Cholinesterase): 22 nM

COCc1c(C(=O)OC(C)C)ncc2[nH]c3ccc4oc(C(C)C)cc4c3c12
IC50 [1]: 0.8 nM

Clc1ccc2c(c1)[nH]c1c2ncc2[nH]c3ccccc3c21
Ki [8]: 4 nM
Ki [9]: 12 nM
Ki [10]: 24 nM
Ki [11]: 210 nM
Ki [12]: > 10000 nM
IC50 [1]: 4 nM

COc1ccc(-[n+]2ccc3c4ccccc4n(C)c3c2)cc1
IC50 (Acetylcholinesterase [5]): 300 nM
IC50 (Cholinesterase): 32000 nM and 116000 nM

Cc1nccc2c1[nH]c1cc(CO)ccc12
IC50 [4]: 40 nM

C=CCOc1ccc2c(c1)[nH]c1c(C)nccc12
IC50 [4]: 5 nM

COc1ccc2c3ccnc(C)c3n(C)c2c1
IC50 [4]: 11 nM

COc1ccc(CC2NCCc3c2[nH]c2c(C)cc(C)cc32)cc1OC (configuration not stated)
Ki [2]: 0.2 nM
Kb [3]: < 0.3 nM and 0.08 nM

CCc1cccc2[nH]c3c(c12)CCNC3Cc1ccc(OC)c(OC)c1 (configuration not stated)
Ki [2]: 0.1 nM
Kb [3]: < 0.3 nM

Brc1ccc2[nH]c3cnc4c5ccccc5[nH]c4c3c2c1
IC50 [1]: 4 nM

Cn1c2c(c3ccccc31)CC[N+](c1ccc(Br)cc1Br)=C2
IC50 (Acetylcholinesterase [6]): > 10000 nM

Cn1c2ccccc2c2cc[n+](-c3ccc(Br)cc3)cc21
IC50 (Cholinesterase): 32000 nM and 116000 nM
IC50 (Acetylcholinesterase [6]): 240 nM

Cn1c2c(c3ccccc31)CC[N+](c1ccc(I)cc1)=C2
IC50 (Acetylcholinesterase [6]): 1500 nM

C=C[C@H]1[C@@H](/C(=C/O)C(=O)OC)C[C@H]2c3[nH]c4ccccc4c3CCN2[C@H]1O[C@@H]1O[C@H](CO)[C@@H](O)[C@H](O)[C@H]1O
IC50 (Acetylcholinesterase [7]): 1900 nM

COc1ccc(CC2NCCc3c2[nH]c2cccc(C)c32)cc1OC (configuration not stated)
Ki [2]: 0.1 nM
Kb [3]: 0.08 nM

COc1ccc(CC2NCCc3c2[nH]c2c(F)cc(F)cc32)cc1OC (configuration not stated)
Ki [2]: 0.2 nM
Kb [3]: < 0.3 nM

COCc1c(C(=O)OC(C)C)ncc2[nH]c3ccc4nccnc4c3c12
IC50 [1]: 0.8 nM

CCOC(=O)c1ncc2[nH]c3ccc(OCc4ccccc4)cc3c2c1COC
IC50 [13]: 0.5 nM
Ki [8]: 4 nM
Ki [9]: 4 nM
Ki [10]: 6 nM
Ki [11]: 5 nM
Ki [12]: > 1000 nM

Cn1c2c(c3ccccc31)CC[N+](c1ccc(Br)cc1)=C2
IC50 (Acetylcholinesterase [6]): 1500 nM

COC(=O)C1=CO[C@@H](C)[C@H]2C[n+]3ccc4c([nH]c5ccccc54)c3C[C@H]12
IC50 (Acetylcholinesterase [7]): 780 nM
